Test results reported in patent US8404708B2, “Dual NK1/NK3 receptor antagonists” (Hoffmann-La Roche Inc., priority 2004, dated 2013).
pKi: −log10 of the molar value. Where two headings read alike, the source gives them in different places.

Tests used:
[1] = target: human NK1 receptor (Homo sapiens, UniProt P25103); experiment: NK1 receptor binding, [3H]substance P displacement, CHO cell membranes; details: for pKi: first value of the cell pKi NK1/NK3, human NK1 receptor, [3H]substance P; for Ki: first value of the cell NK1/NK3, read-out: pKi NK1 (converted)
[2] = target: T1, Recombinant human NK3 (hNK3) receptor (Homo sapiens, UniProt P29371); experiment: NK3 receptor binding, [3H]SR142801 displacement, membrane preparations; details: for pKi: second value of the cell pKi NK1/NK3, hNK3 receptor, [3H]SR142801; for Ki: second value of the cell NK1/NK3, read-out: pKi NK3 (converted)
T1 construct: expressed in transfected cells
T1 sequence (P29371 1-465): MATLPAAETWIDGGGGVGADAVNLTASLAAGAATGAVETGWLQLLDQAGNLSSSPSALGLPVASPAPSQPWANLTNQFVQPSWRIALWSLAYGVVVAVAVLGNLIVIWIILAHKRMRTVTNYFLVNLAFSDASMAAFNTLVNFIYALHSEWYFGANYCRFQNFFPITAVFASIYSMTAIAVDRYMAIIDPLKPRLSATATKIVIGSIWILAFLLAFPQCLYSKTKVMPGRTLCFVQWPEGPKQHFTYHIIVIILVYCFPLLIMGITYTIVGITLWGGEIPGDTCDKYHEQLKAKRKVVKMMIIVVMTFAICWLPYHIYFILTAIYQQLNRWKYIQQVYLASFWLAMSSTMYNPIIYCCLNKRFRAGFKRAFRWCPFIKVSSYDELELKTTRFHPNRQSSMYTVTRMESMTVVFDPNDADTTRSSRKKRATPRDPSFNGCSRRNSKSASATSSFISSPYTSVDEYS
Outline: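 Buffer: Tris-HCl 50 mM pH 7.4, BSA 0.1%, MnCl2 4 mM, phosphoramidon 1 μM. ~2.5 μg membrane/well, 90 min RT. NSB with SB222200 (10 μM). Vacuum filtration over 0.3% PEI-treated GF/C, cold Tris/BSA washes, scintillation count; duplicates, ≥2 experiments.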

Chain of human NK1 receptor (P25103 whole entry): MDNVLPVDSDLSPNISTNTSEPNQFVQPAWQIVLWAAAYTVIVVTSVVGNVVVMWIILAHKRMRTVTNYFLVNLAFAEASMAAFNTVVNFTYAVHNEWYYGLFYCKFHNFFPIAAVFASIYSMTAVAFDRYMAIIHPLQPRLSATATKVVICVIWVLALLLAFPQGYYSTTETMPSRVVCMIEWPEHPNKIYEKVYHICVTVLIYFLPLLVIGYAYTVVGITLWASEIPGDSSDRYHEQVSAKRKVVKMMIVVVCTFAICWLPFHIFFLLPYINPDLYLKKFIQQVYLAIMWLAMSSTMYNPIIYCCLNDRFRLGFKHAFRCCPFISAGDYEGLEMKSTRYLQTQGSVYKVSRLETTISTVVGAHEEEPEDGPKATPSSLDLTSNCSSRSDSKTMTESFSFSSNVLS

Row | pKi [1] | pKi [2] | Ki [1] [nM] | Ki [2] [nM] | Structure (SMILES)
1 | 8.85 | 7.91 |  |  | Cc1ccccc1-c1cc(N2CC[C@@H](O)[C@H](O)C2)ncc1N(C)C(=O)C(C)(C)c1cc(C(F)(F)F)cc(C(F)(F)F)c1 (racemic) [Example 186, (3RS,4RS)-2-(3,5-Bis-trifluoromethyl-phenyl)-N-(3,4-dihydroxy-4′-o-tolyl-3,4,5,6-tetrahydro-2H-[1,2′]bipyridinyl-5′-yl)-N-methyl-isobutyramide]
2 | 8.78 | 8.45 |  |  | CN(C(=O)C(C)(C)c1cc(C(F)(F)F)cc(C(F)(F)F)c1)c1cnc(N(CCO)CCO)cc1-c1ccc(Cl)cc1Cl [Example 86, N-[6-[Bis-(2-hydroxy-ethyl)-amino]-4-(2,4-dichloro-phenyl)-pyridin-3-yl]-2-(3,5-bis-trifluoromethyl-phenyl)-N-methyl-isobutyramide]
3 | 9.22 | 7.79 |  |  | CC(=O)NC1CCN(c2cc(-c3ccc(F)cc3C)c(N(C)C(=O)C(C)(C)c3cc(C(F)(F)F)cc(C(F)(F)F)c3)cn2)CC1 [Example 114, N-[4-Acetylamino-4′-(4-fluoro-2-methyl-phenyl)-3,4,5,6-tetrahydro-2H-[1,2′]bipyridinyl-5′-yl]-2-(3,5-bis-trifluoromethyl-phenyl)-N-methyl-isobutyramide]
4 | 8.35 | 8.81 |  |  | CN(C(=O)C(C)(C)c1cc(F)cc(C(F)(F)F)c1)c1cnc(N2CCC[C@H]2CO)cc1-c1ccccc1Cl [Example 4, (S)-N-[4-(2-Chloro-phenyl)-6-(2-hydroxymethyl-pyrrolidin-1-yl)-pyridin-3-yl]-2-(3-fluoro-5-trifluoromethyl-phenyl)-N-methyl-isobutyramide]
5 | 8.72 | 7.71 |  |  | Cc1ccccc1-c1cc(NC[C@H](O)CO)ncc1N(C)C(=O)C(C)(C)c1cc(C(F)(F)F)cc(C(F)(F)F)c1 [Example 122, (S)-2-(3,5-Bis-trifluoromethyl-phenyl)-N-[6-(2,3-dihydroxy-propylamino)-4-o-tolyl-pyridin-3-yl]-N-methyl-isobutyramide]
6 | 8.42 | 8.03 |  |  | CN(C(=O)C(C)(C)c1cc(C(F)(F)F)cc(C(F)(F)F)c1)c1cnc(N2CCC[C@@H]2CO)cc1-c1ccc(Cl)c(Cl)c1 [Example 95, (R)-2-(3,5-Bis-trifluoromethyl-phenyl)-N-[4-(3,4-dichloro-phenyl)-6-(2-hydroxymethyl-pyrrolidin-1-yl)-pyridin-3-yl]-N-methyl-isobutyramide]
7 |  |  | 1.35 | 3.47 | CN(C(=O)C(C)(C)c1cc(C(F)(F)F)cc(C(F)(F)F)c1)c1cnc(N2C[C@H](O)C[C@H]2CO)cc1-c1ccc(F)c(F)c1 [Example 209, (2S,4R)-2-(3,5-Bis-trifluoromethyl-phenyl)-N-[4-(3,4-difluoro-phenyl)-6-(4-hydroxy-2-hydroxymethyl-pyrrolidin-1-yl)-pyridin-3-yl]-N-methyl-isobutyramide]
8 | 9.06 | 8.24 |  |  | CC(O)CNc1cc(-c2ccccc2Cl)c(N(C)C(=O)C(C)(C)c2cc(C(F)(F)F)cc(C(F)(F)F)c2)cn1 (racemic) [Example 74, (RS)-2-(3,5-Bis-trifluoromethyl-phenyl)-N-[4-(2-chloro-phenyl)-6-(2-hydroxy-propylamino)-pyridin-3-yl]-N-methyl-isobutyramide]
9 |  |  | 1.48 | 1.45 | CN(C(=O)C(C)(C)c1cc(C(F)(F)F)cc(C(F)(F)F)c1)c1cnc(N2CCC[C@H]2CO)cc1-c1cc(Cl)ccc1Cl [Example 284, (S)-2-(3,5-Bis-trifluoromethyl-phenyl)-N-[4-(2,5-dichloro-phenyl)-6-(2-hydroxymethyl-pyrrolidin-1-yl)-pyridin-3-yl]-N-methyl-isobutyramide]
10 | 8.78 | 9.02 |  |  | Cc1cc(F)ccc1-c1cc(N2C[C@H](O)C[C@H]2CO)ncc1N(C)C(=O)C(C)(C)c1cc(C(F)(F)F)cc(C(F)(F)F)c1 [Example 158, (2S,4R)-2-(3,5-Bis-trifluoromethyl-phenyl)-N-[4-(4-fluoro-2-methyl-phenyl)-6-(4-hydroxy-2-hydroxymethyl-pyrrolidin-1-yl)-pyridin-3-yl]-N-methyl-isobutyramide]
11 |  |  | 1.51 | 6.61 | CN(C(=O)C(C)(C)c1cc(C(F)(F)F)cc(C(F)(F)F)c1)c1cnc(N2C[C@H](O)C[C@H]2CO)cc1-c1ccc(F)cc1F [Example 220, (2S,4R)-2-(3,5-Bis-trifluoromethyl-phenyl)-N-[4-(2,4-difluoro-phenyl)-6-(4-hydroxy-2-hydroxymethyl-pyrrolidin-1-yl)-pyridin-3-yl]-N-methyl-isobutyramide]
12 | 8.19 | 7.73 |  |  | CN(C(=O)C(C)(C)c1cc(C(F)(F)F)cc(C(F)(F)F)c1)c1cnc(N2CCCCC2CO)cc1-c1ccccc1Cl (racemic) [Example 141, (RS)-2-(3,5-Bis-trifluoromethyl-phenyl)-N-[4′-(2-chloro-phenyl)-2-hydroxymethyl-3,4,5,6-tetrahydro-2H-[1,2′]bipyridinyl-5′-yl]-N-methyl-isobutyramide]
13 |  |  | 2.29 | 2.4 | CN(C(=O)C(C)(C)c1cc(C(F)(F)F)cc(C(F)(F)F)c1)c1cnc(N2CC[C@H](O)[C@H]2CO)cc1-c1ccc(Cl)c(Cl)c1 [Example 268, (2R,3S)-2-(3,5-Bis-trifluoromethyl-phenyl)-N-[4-(3,4-dichloro-phenyl)-6-(3-hydroxy-2-hydroxymethyl-pyrrolidin-1-yl)-pyridin-3-yl]-N-methyl-isobutyramide]
14 | 8.87 | 8.03 |  |  | CN(C(=O)C(C)(C)c1cc(C(F)(F)F)cc(C(F)(F)F)c1)c1cnc(N(CCO)CCO)cc1-c1ccc(F)cc1 [Example 88, N-[6-[Bis-(2-hydroxy-ethyl)-amino]-4-(4-fluoro-phenyl)-pyridin-3-yl]-2-(3,5-bis-trifluoromethyl-phenyl)-N-methyl-isobutyramide]
15 |  |  | 1.17 | 1.41 | Cc1c(F)cccc1-c1cc(N2C[C@H](O)C[C@H]2CO)ncc1N(C)C(=O)C(C)(C)c1cc(C(F)(F)F)cc(C(F)(F)F)c1 [Example 228, (2S,4R)-2-(3,5-Bis-trifluoromethyl-phenyl)-N-[4-(3-fluoro-2-methyl-phenyl)-6-(4-hydroxy-2-hydroxymethyl-pyrrolidin-1-yl)-pyridin-3-yl]-N-methyl-isobutyramide]
16 | 8.93 | 8.96 |  |  | Cc1ccccc1-c1cc(N(CCO)CCO)ncc1N(C)C(=O)C(C)(C)c1cc(C(F)(F)F)cc(C(F)(F)F)c1 [Example 83, N-{6-[Bis-(2-hydroxy-ethyl)-amino]-4-o-tolyl-pyridin-3-yl}-2-(3,5-bis-trifluoromethyl-phenyl)-N-methyl-isobutyramide]
17 | 8.37 | 7.83 |  |  | CN(C(=O)C(C)(C)c1cc(C(F)(F)F)cc(C(F)(F)F)c1)c1cnc(N2CCC[C@@H]2CO)cc1-c1ccc(Cl)cc1Cl [Example 94, (R)-2-(3,5-Bis-trifluoromethyl-phenyl)-N-[4-(2,4-dichloro-phenyl)-6-(2-hydroxymethyl-pyrrolidin-1-yl)-pyridin-3-yl]-N-methyl-isobutyramide]
18 | 8.69 | 7.52 |  |  | CN(C(=O)C(C)(C)c1cc(C(F)(F)F)cc(C(F)(F)F)c1)c1cnc(N2CCCC[C@@H]2CO)cc1-c1ccccc1Cl [Example 160, (R)-2-(3,5-Bis-trifluoromethyl-phenyl)-N-[4′-(2-chloro-phenyl)-2-hydroxymethyl-3,4,5,6-tetrahydro-2H-[1,2′]bipyridinyl-5′-yl]-N-methyl-isobutyramide]
19 | 9.07 | 8.58 |  |  | CN(C(=O)C(C)(C)c1cc(C(F)(F)F)cc(C(F)(F)F)c1)c1cnc(N2C[C@H](O)C[C@H]2CO)cc1-c1ccccc1Br [Example 129, (2S,4R)-2-(3,5-Bis-trifluoromethyl-phenyl)-N-[4-(2-bromo-phenyl)-6-(4-hydroxy-2-hydroxymethyl-pyrrolidin-1-yl)-pyridin-3-yl]-N-methyl-isobutyramide]
20 | 8.74 | 7.55 |  |  | Cc1ccccc1-c1cc(N2CC(O)C2)ncc1N(C)C(=O)C(C)(C)c1cc(C(F)(F)F)cc(C(F)(F)F)c1 [Example 163, 2-(3,5-Bis-trifluoromethyl-phenyl)-N-[6-(3-hydroxy-azetidin-1-yl)-4-o-tolyl-pyridin-3-yl]-N-methyl-isobutyramide]
21 | 8.54 | 8.41 |  |  | Cc1cc(F)ccc1-c1cc(N2[C@H](CO)CC[C@@H]2CO)ncc1N(C)C(=O)C(C)(C)c1cc(C(F)(F)F)cc(C(F)(F)F)c1 [Example 197, (2R,5S)-N-[6-(2,5-Bis-hydroxymethyl-pyrrolidin-1-yl)-4-(4-fluoro-2-methyl-phenyl)-pyridin-3-yl]-2-(3,5-bis-trifluoromethyl-phenyl)-N-methyl-isobutyramide]
22 |  |  | 1.62 | 1.48 | CN(C(=O)C(C)(C)c1cc(C(F)(F)F)cc(C(F)(F)F)c1)c1cnc(N2C[C@@H](O)C[C@H]2CO)cc1-c1ccc(F)cc1C=O [Example 239, (2S,4S)-2-(3,5-Bis-trifluoromethyl-phenyl)-N-[4-(4-fluoro-2-formyl-phenyl)-6-(4-hydroxy-2-hydroxymethyl-pyrrolidin-1-yl)-pyridin-3-yl]-N-methyl-isobutyramide]
